Data published in the NIST ThermoML archive (doi:10.1016/j.jct.2007.08.002).

Test: molar heat capacity at saturation pressure
Settings: Crystal 3, Small (less than 1 g) adiabatic calorimetry

NC12CC3CC(CC(C3)C1)C2 [tricyclo(3.3.1.1:3,7)decan-1-amine]
Settings	molar heat capacity [J/K/mol]
5.371 K	0.5825
5.674 K	0.6834
5.933 K	0.7778
6.225 K	0.9013
6.555 K	1.05
6.892 K	1.221
7.234 K	1.413
7.582 K	1.615
7.934 K	1.847
8.29 K	2.095
8.65 K	2.364
9.012 K	2.653
9.378 K	2.953
9.748 K	3.269
10.12 K	3.61
10.59 K	4.072
11.18 K	4.667
11.76 K	5.291
12.35 K	5.952
12.95 K	6.634
13.55 K	7.353
14.16 K	8.092
14.78 K	8.863
15.5 K	9.794
16.34 K	10.89
17.18 K	12.01
18.02 K	13.1
18.87 K	14.19
19.72 K	15.29
20.86 K	16.74
22.27 K	18.51
23.71 K	20.25
25.14 K	21.91
26.57 K	23.5
28.24 K	25.24
29.96 K	26.91
31.58 K	28.39
33.36 K	29.89
35.14 K	31.32
36.93 K	32.63
38.72 K	33.88
40.51 K	35.04
42.4 K	36.18
44.38 K	37.34
46.37 K	38.43
48.36 K	39.47
50.35 K	40.45
52.35 K	41.44
54.34 K	42.38
56.34 K	43.3
58.35 K	44.2
60.36 K	45.16
62.36 K	46.1
64.37 K	46.99
66.38 K	47.92
68.39 K	48.83
70.41 K	49.75
72.42 K	50.71
74.44 K	51.65
76.46 K	52.68
78.49 K	53.68
78.62 K	53.84
80.52 K	54.78
80.69 K	54.93
82.5 K	55.83
82.55 K	55.82
84.31 K	56.77
84.59 K	56.97
86.12 K	57.74
88.91 K	59.25
91 K	60.41
92.82 K	61.47
94.65 K	62.47
96.48 K	63.45
98.3 K	64.46
100.14 K	65.47
101.97 K	66.49
103.81 K	67.54
105.65 K	68.56
107.49 K	69.56
109.33 K	70.65
111.18 K	71.75
113.03 K	72.83
114.88 K	73.92
116.73 K	75.05
118.59 K	76.14
120.45 K	77.29
122.31 K	78.44
124.17 K	79.61
126.03 K	80.8
127.9 K	82.02
129.77 K	83.23
131.64 K	84.39
133.51 K	85.64
135.38 K	86.8
137.26 K	88.05
139.13 K	89.21
141.01 K	90.54
142.89 K	91.79
144.78 K	93.04
146.66 K	94.37
148.56 K	95.62
150.44 K	96.95
150.6 K	97.03
152.33 K	98.28
153.55 K	99.11
154.22 K	99.61
156.12 K	100.94
156.34 K	101.19
158.01 K	102.27
159.13 K	103.18
159.9 K	103.68
161.8 K	105.09
161.91 K	105.26
163.69 K	106.59
164.48 K	107.17
165.59 K	108
166.66 K	108.92
167.48 K	109.5
168.73 K	110.58
169.38 K	111
170.79 K	112.25
171.28 K	112.58
172.85 K	113.91
173.18 K	114.16
174.91 K	115.65
175.08 K	115.74
176.96 K	117.4
176.98 K	117.32
178.89 K	119.06
179.01 K	119.23
180.8 K	120.73
181.05 K	120.98
182.71 K	122.39
183.09 K	122.8
184.61 K	124.05
185.12 K	124.63
186.52 K	125.8
187.15 K	126.46
188.43 K	127.63
189.18 K	128.38
190.33 K	129.46
191.2 K	130.37
192.24 K	131.37
193.21 K	132.53
194.15 K	133.36
195.22 K	134.61
